Source: publication PMC3006138, “Fexinidazole – A New Oral Nitroimidazole Drug Candidate Entering Clinical Development for the Treatment of Sleeping Sickness” (PLoS Neglected Tropical Diseases, 2010)
Values joined by “and” are separate entries in the source; they are usually repeats but may differ in a detail not shown here. Identical values can stand only once. “Also recorded” adds a separate entry of the source.

What was measured:
[1] = test system: human hepatocytes (pooled); experiment: Hepatocyte intrinsic clearance and metabolite profile; assay type: in vitro ADME; settings: for % of total drug related material: fexinidazole 10 µM
Procedure: (§1) Fexinidazole was incubated with cryopreserved hepatocytes from male CD-1 mice, male Sprague Dawley rats, male beagle dogs, male cynomolgus monkeys, and from pooled white or African-American human donor samples (purchased commercially), at concentrations of 1 µM and 10 µM. […] The incubated samples were analyzed by LC-MS after extraction into acetonitrile.
(§2) A quality control analysis of fexinidazole was performed via 1H-NMR in DMSO and LC- […]
(§3) provided by the Swiss Tropical Institute (Basel, Switzerland).
(§4) Reagents and solvents were of analytical grade and obtained from Sigma-Aldrich (St. Louis, […]
(§5) Cryopreserved hepatocytes from the male CD1 mouse, lot CSI; male Sprague Dawley rat, lot LPL; male beagle dog, lot BWX; male cynomolgus monkey, lot EHH; and pooled human samples, lot MJI, were purchased from In Vitro Technologies Inc (Baltimore, Maryland, […]
(§6) 5.4. In vitro Incubations
(§7) On the day of the experiment a 10 mM stock solution of fexinidazole in DMSO was prepared and, within 3 hours, aliquots of this freshly prepared solution, after suitable dilution, were added to the incubation matrix, to reach fexinidazole final concentrations of 1 and 10 µM. The final percentage of DMSO was 0.01% in the incubation samples for the […]
(§8) On the day of experiment, the cryopreserved hepatocytes were thawed following the detailed instructions provided by the supplier.
(§9) The number of viable cells was determined using a Trypan Blue exclusion method.
(§10) 5.4.1. Intrinsic Clearance Study […]
(§11) µM with mouse, rat, dog, monkey and human hepatocytes (300000 cells/mL for the mouse and 1 million cells/mL for the other species) in a final incubation volume of 0.75 mL […]
(§12) Incubations were performed in duplicate in a 48-well plate under shaking. Sampling was performed using an automatic liquid handling system (Multiprobe II EX, Packard). At 0, 1, 5, 10, 15, 20, 30, 60 and 120 minutes, 50 µL aliquots of the incubates were taken, then 80 µL of ice-cold acetonitrile and 20 µL of 1 µM warfarin in acetonitrile (internal standard) were added, and samples centrifuged at 2000 rpm for 20 min. The supernatant was analyzed by LC-MS/MS. […]
(§13) the medium alone at t = 0 and 120 minutes.
(§14) For the determination of phase I and phase II activity of hepatocytes, 7-ethoxycoumarin (7-EC) 1 µM, and 7-hydroxycoumarin (7-HC) 30 µM were used as positive controls and incubated under the same conditions as fexinidazole. Aliquots of incubates were taken at 0, 10, 20, 30, 60 and 120 minutes and processed as fexinidazole samples.
(§15) 5.4.2. Metabolite Profile Study
(§16) For metabolite profiling, fexinidazole was incubated at a concentration of 10 µM with mouse, rat, dog, monkey and human hepatocytes (300000 cells/mL for the mouse and 1 million cells/mL for the other species) in a final incubation volume of 2 mL Leibovitz L-15 […]
(§17) Aliquots of the incubation samples were taken at t = 0, 30 and 120 minutes; the metabolism was stopped by the addition of an equal volume of cold acetonitrile and the samples centrifuged at 1500 rpm for 20 min. The supernatant was stored at -20°C until analysis. Control incubations were performed with the compound in the medium alone […]
(§18) 5.5. Analysis of Samples for Intrinsic Clearance Determination
(§19) The analysis of the samples for intrinsic clearance determination was performed by an LC-MS/MS method, using the following conditions:
(§20) HPLC Equipment and Conditions
(§21) HPLC system Agilent 1100 binary pump (Agilent, Palo Alto, USA)
(§22) Autosampler CTC Pal (Alfatech, San Jose, USA)
(§23) Analytical column Guard Column SB-C8 4.6 x 12.5 mm, 5 µm (Zorbax)
(§24) Column temperature ambient
(§25) Mobile phase A 10 mM ammonium formate pH 4.0: acetonitrile (95:5, v:v)
(§26) Mobile phase B 10 mM ammonium formate pH 4.0: acetonitrile (5:95, v:v) […]
(§27) Gradient conditions Step Total time (min) flow (µL/min) %A % B […]
(§28) MS Equipment and Conditions
(§29) Mass spectrometer API 4000 Triple Quadrupole (MDS-Sciex, Toronto, […]
(§30) Source Turbo Ion Spray (TIS)
(§31) Ion mode Positive for fexinidazole and 7-EC.
(§32) Negative for 7-HC, 7-HC sulphate and 7-HC glucuronide.

[2] = test system: T. b. gambiense (STIB 930); experiment: In vitro trypanocidal assay (Alamar Blue); assay type: cell-based, Trypanosoma brucei gambiense; settings: Trypanosoma brucei, 72 h; read-out: IC50
Procedure: Parasites were cultured with or without the test article at a concentration of 3×10^4/mL in Minimal Essential Medium, according to Baltz et al., with the following modifications: 0.2 mM 2-mercaptoethanol, 1 mM Na-pyruvate, 0.5 mM hypoxanthine and 15% heat inactivated horse serum at 37°C in 5% CO2 in 96-well microtitre plates for 72 h. 10 µL of Alamar Blue was added for the final 3 h to determine viability. The assay was assessed by reading the fluorescence in each well at an excitation wavelength of 536 nm and at an emission wavelength of 588 nm. The IC50 values were calculated from the sigmoidal inhibition curves. For cytotoxicity, 4×10^4/mL L-6 rat skeletal myoblast cells were used, and incubations and assessments carried out as above.

rat hepatocytes = experiment: Hepatocyte intrinsic clearance and metabolite profile; assay type: in vitro ADME; settings: fexinidazole 10 µM
Procedure: as §1, §2, §3, §4, §5, §6, §7, §8, §9, §10, §11, §12, §13, §14, §15, §16, §17, §18, §19, §20, §21, §22, §23, §24, §25, §26, §27, §28, §29, §30, §31, §32

hERG = hERG (Homo sapiens, UniProt Q12809); experiment: hERG tail current, patch clamp in HEK 293 cells; settings: for Residual Current (% of control): 37°C
hERG, sequence (Q12809 whole entry): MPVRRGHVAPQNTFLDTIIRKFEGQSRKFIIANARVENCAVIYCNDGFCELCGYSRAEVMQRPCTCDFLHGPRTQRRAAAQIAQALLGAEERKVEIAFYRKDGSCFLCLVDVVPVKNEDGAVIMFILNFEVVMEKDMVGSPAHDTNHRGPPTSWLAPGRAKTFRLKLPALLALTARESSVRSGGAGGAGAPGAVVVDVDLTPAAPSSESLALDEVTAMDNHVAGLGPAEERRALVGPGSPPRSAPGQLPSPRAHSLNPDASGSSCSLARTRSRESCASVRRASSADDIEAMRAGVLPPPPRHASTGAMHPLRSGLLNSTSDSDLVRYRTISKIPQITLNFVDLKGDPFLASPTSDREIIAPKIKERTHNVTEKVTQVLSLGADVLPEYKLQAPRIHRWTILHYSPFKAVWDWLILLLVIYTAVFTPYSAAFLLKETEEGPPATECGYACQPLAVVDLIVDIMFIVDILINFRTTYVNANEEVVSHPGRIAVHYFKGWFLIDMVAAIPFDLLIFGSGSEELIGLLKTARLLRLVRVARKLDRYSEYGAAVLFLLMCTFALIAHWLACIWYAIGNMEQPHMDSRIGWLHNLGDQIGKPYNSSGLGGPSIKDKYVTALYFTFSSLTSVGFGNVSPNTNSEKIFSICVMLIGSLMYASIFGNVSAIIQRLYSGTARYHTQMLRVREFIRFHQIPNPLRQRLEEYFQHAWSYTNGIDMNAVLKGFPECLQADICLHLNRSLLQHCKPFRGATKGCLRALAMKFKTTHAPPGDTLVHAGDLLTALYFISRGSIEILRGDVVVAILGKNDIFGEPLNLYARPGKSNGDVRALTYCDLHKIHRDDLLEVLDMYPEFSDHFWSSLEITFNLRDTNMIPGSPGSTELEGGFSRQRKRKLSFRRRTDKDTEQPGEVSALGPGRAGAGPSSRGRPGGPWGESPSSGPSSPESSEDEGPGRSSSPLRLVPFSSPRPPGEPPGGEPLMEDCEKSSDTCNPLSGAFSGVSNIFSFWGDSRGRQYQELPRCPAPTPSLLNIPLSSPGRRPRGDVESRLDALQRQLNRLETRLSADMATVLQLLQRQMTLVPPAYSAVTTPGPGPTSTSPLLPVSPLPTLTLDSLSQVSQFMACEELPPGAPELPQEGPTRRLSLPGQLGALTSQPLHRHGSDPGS

[3] = Mouse pharmacokinetics after 5-day oral dosing; settings: for AUC0-tlast / AUC0-∞: fexinidazole 200 mg/kg/day po, Day 5
Salmonella typhimurium = experiment: Ames test; assay type: cell-based; settings: for bacterial mutagenicity: standard strains, with and without S9
Procedure: To evaluate bacterial mutagenicity, a full Ames test was carried out on fexinidazole and fexinidazole sulfone using the five strains of Salmonella typhimurium recommended by the relevant ICH regulatory guideline, namely TA1535, TA1537, TA98, TA100, and TA102, as well as the corresponding nitroreductase-deficient strains, [48]. Standard bacterial plate incorporation assays were carried out, essentially as described by Maron and Ames. Tests on fexinidazole were carried out with and without rat liver post-mitochondrial fraction plus co-factors (S9 mix) to provide a mammalian metabolic activation system. The S9 fraction was prepared from Spague-Dawley rats pretreated with the mixed cytochrome P 450 enzyme inducer Aroclor 1254. Tests on fexinidazole sulfone were carried out only in the absence of rat liver S9 (as this is a metabolite). After incubation at 37°C for three days, plates were scored for mutant colonies using a Colony Counter plate reader.

[4] = male, NMRI, mouse, plasma, po, 200 mg/kg/day

Row | Compound | % of total drug related material ([1]; 30 min) | % of total drug related material ([1]; 120 min) | IC50 [2] | % of total drug related material (rat hepatocytes; 30 min) | % of total drug related material (rat hepatocytes; 120 min) | Residual Current (% of control) (hERG; 1 µM) | Residual Current (% of control) (hERG; 5 µM) | Residual Current (% of control) (hERG; 30 µM) | AUC0-tlast [3] | AUC0-∞ [3] | Cmax [3, 4] | Tmax [3, 4] | half-life [3, 4] | bacterial mutagenicity (Salmonella typhimurium) | % of total drug related material ([1]; t=0) | % of total drug related material (rat hepatocytes; t=0) | effect on hERG peak tail current (hERG; 1, 5 and 30 µM) | also measured
1 | Cn1c([N+](=O)[O-])cnc1COc1ccc(S(C)(=O)=O)cc1 [Fexinidazole sulfone] | 2% | 4% | 0.16 µg/mL to 0.39 µg/mL and 480 nM to 1.25 µM | 10% | 32% | 96.16±8.15% | 90.76±3.84% | 67.41±2.24% | 1050 µg·h/mL | 1060 µg·h/mL | 77600 ng/mL | 3 h | 2.75 h | gave similar results to fexinidazole |  |  |  | decrease on hERG peak tail current (hERG; 30 µM, 9.34 µg/mL): 33%; effect on hERG peak tail current (hERG; 1 or 5 µM): no effect
2 | Cn1c([N+](=O)[O-])cnc1COc1ccc([S+](C)[O-])cc1 (stereo not drawn) [Fexinidazole sulfoxide] | 96% | 95% | 0.18 µg/mL to 0.36 µg/mL and 610 nM to 1.22 µM | 90% | 68% | 87.06±0.92% | 101.39±8.64% | 98.04±1.52% | 161 µg·h/mL | 197 µg·h/mL | 33600 ng/mL | 0.833 h | 4.31 h |  | 17% | 32% | judged not to affect hERG peak tail current | 
3 | CSc1ccc(OCc2ncc([N+](=O)[O-])n2C)cc1 [Fexinidazole, 1-methyl-2-((p-(methylthio)phenoxy)methyl)-5-nitroimidazole] | 2% | < 1% | 0.16 µg/mL to 0.36 µg/mL and 580 nM to 1.29 µM |  |  | 100.12±4.29% | 94.86±1.06% | 88.97±8.21% |  |  | 457 ± 179 ng/mL | 0.833 ± 0.289 h | 2.76 ± 1.26 h | elicited both frameshift and base substitution mutations; also recorded: mutagenic in the Ames test | 83% | 68% | judged not to affect hERG peak tail current | t1/2 ([1]; 1 µM): 0.223 h; AUC(0-t) [3, 4]: 1.53 ± 0.348 µg·h/mL; mutagenic activity (Salmonella typhimurium; nitroreductase-deficient Salmonella strains): significantly reduced or abolished
